Experimental data from BindingDB's records for doi:10.1021/jm00020a029 (Merck Research Laboratories, 1995).
Where a SMILES comes first, the peptide text is derived from it. [ ]: non-standard residue; d: D form. Phe(3,4-Cl2) = N[C@@H](Cc1ccc(Cl)c(Cl)c1)C(=O)O; Phe(4-Cl) = N[C@@H](Cc1ccc(Cl)cc1)C(=O)O; Phe(4-F) = N[C@@H](Cc1ccc(F)cc1)C(=O)O; hArg = N=C(N)NCCCC[C@H](N)C(=O)O; Cha = N[C@@H](CC1CCCCC1)C(=O)O; Phg = N[C@H](C(=O)O)c1ccccc1; Aib = CC(C)(N)C(=O)O; GABA = NCCCC(=O)O

assay: Evaluated for the activation of human thrombin receptor measured by platelet aggregation

Row | Structure (SMILES) | EC50 [µM]
1 | CC(C)C[C@H](NC(=O)[C@H](CC(C)C)NC(=O)[C@H](Cc1ccccc1)NC(=O)[C@@H](N)CO)C(=O)N[C@@H](CCCN=C(N)N)C(=O)N[C@@H](CC(N)=O)C(=O)N1CCC[C@H]1C(N)=O [1-{(S)-2-[(S)-2-((S)-2-{(S)-2-[(S)-2-((S)-2-Amino-3-hydroxy-propionylamino)-3-phenyl-propionylamino]-4-methyl-pentanoylamino}-4-methyl-pentanoylamino)-5-guanidino-pentanoylamino]-3-carbamoyl-propionyl}-pyrrolidine-2-carboxylic acid amide] (H-SFLLRNP-NH2) | 0.5
2 | CC(C)C[C@H](NC(=O)[C@@H](CC(C)C)NC(=O)[C@H](Cc1ccccc1)NC(=O)[C@@H](N)CO)C(=O)N[C@@H](CCCNC(=N)N)C(N)=O [(R)-2-[(S)-2-((S)-2-Amino-3-hydroxy-propionylamino)-3-phenyl-propionylamino]-4-methyl-pentanoic acid [(S)-1-((S)-1-carbamoyl-4-guanidino-butylcarbamoyl)-3-methyl-butyl]-amide] | > 800
3 | CC(=O)N[C@@H](Cc1ccccc1)C(=O)N[C@@H](CC(C)C)C(=O)N[C@@H](CC(C)C)C(=O)N[C@@H](CCCNC(=N)N)C(N)=O [(S)-2-((S)-2-Acetylamino-3-phenyl-propionylamino)-4-methyl-pentanoic acid [(S)-1-((S)-1-carbamoyl-4-guanidino-butylcarbamoyl)-3-methyl-butyl]-amide] (Ac-FLLR-NH2) | 200
4 | CC(C)C[C@H](NC(=O)[C@H](CC(C)C)NC(=O)[C@@H](N)Cc1ccccc1)C(=O)N[C@@H](CCCNC(=N)N)C(N)=O [(S)-2-((S)-2-Amino-3-phenyl-propionylamino)-4-methyl-pentanoic acid [(S)-1-((S)-1-carbamoyl-4-guanidino-butylcarbamoyl)-3-methyl-butyl]-amide] (H-FLLR-NH2) | > 800
5 | CC(C)C[C@H](NC(=O)[C@H](CC(C)C)NC(=O)[C@H](Cc1ccc(F)cc1)NC(=O)[C@H](C)N)C(=O)N[C@@H](CCCCNC(=N)N)C(N)=O [(S)-2-((S)-2-{(S)-2-[(S)-2-((S)-2-Amino-propionylamino)-3-(4-fluoro-phenyl)-propionylamino]-4-methyl-pentanoylamino}-4-methyl-pentanoylamino)-6-guanidino-hexanoic acid amide] (H-A[Phe(4-F)]LL[hArg]-NH2) | 0.12
6 | CC(C)C[C@H](NC(=O)[C@H](CC(C)C)NC(=O)[C@H](Cc1ccccc1)NC(=O)[C@@H](N)CCCNC(=N)N)C(=O)N[C@@H](CCCNC(=N)N)C(N)=O [(S)-2-Amino-5-guanidino-pentanoic acid ((S)-1-{(S)-1-[(S)-1-((S)-1-carbamoyl-4-guanidino-butylcarbamoyl)-3-methyl-butylcarbamoyl]-3-methyl-butylcarbamoyl}-2-phenyl-ethyl)-amide] (H-RFLLR-NH2) | > 1200
7 | NC(=O)[C@H](Cc1ccccc1)NC(=O)[C@@H](N)CO [(S)-2-Amino-N-((S)-1-carbamoyl-2-phenyl-ethyl)-3-hydroxy-propionamide] | > 800
8 | CC(C)C[C@H](NC(=O)[C@H](CC(C)C)NC(=O)[C@@H](Cc1ccccc1)NC(=O)[C@@H](N)CO)C(=O)N[C@@H](CCCNC(=N)N)C(N)=O [(S)-2-[(R)-2-((S)-2-Amino-3-hydroxy-propionylamino)-3-phenyl-propionylamino]-4-methyl-pentanoic acid [(S)-1-((S)-1-carbamoyl-4-guanidino-butylcarbamoyl)-3-methyl-butyl]-amide] | > 800
9 | CC(C)C[C@H](NC(=O)[C@H](CC(C)C)NC(=O)[C@H](Cc1ccccc1)NC(=O)C(C)(C)N)C(=O)N[C@@H](CCCNC(=N)N)C(N)=O [(S)-2-[(S)-2-(2-Amino-2-methyl-propionylamino)-3-phenyl-propionylamino]-4-methyl-pentanoic acid [(S)-1-((S)-1-carbamoyl-4-guanidino-butylcarbamoyl)-3-methyl-butyl]-amide] (H-[Aib]FLLR-NH2) | 415
10 | CC(C)C[C@H](NC(=O)[C@H](CC(C)C)NC(=O)[C@H](Cc1ccccc1)NC(=O)CN)C(=O)N[C@@H](CCCNC(=N)N)C(N)=O [(S)-2-[(S)-2-(2-Amino-acetylamino)-3-phenyl-propionylamino]-4-methyl-pentanoic acid [(S)-1-((S)-1-carbamoyl-4-guanidino-butylcarbamoyl)-3-methyl-butyl]-amide] (H-GFLLR-NH2) | 1.2
11 | CC(C)C[C@H](NC(=O)[C@H](CC(C)C)NC(=O)[C@H](Cc1ccccc1)NC(=O)CCCN)C(=O)N[C@@H](CCCNC(=N)N)C(N)=O [(S)-2-[(S)-2-(4-Amino-butyrylamino)-3-phenyl-propionylamino]-4-methyl-pentanoic acid [(S)-1-((S)-1-carbamoyl-4-guanidino-butylcarbamoyl)-3-methyl-butyl]-amide] (H-[GABA]FLLR-NH2) | 730
12 | CC(C)C[C@H](NC(=O)[C@H](CC(C)C)NC(=O)[C@H](Cc1ccccc1)NC(=O)[C@H](N)CO)C(=O)N[C@@H](CCCNC(=N)N)C(N)=O [(S)-2-[(S)-2-((R)-2-Amino-3-hydroxy-propionylamino)-3-phenyl-propionylamino]-4-methyl-pentanoic acid [(S)-1-((S)-1-carbamoyl-4-guanidino-butylcarbamoyl)-3-methyl-butyl]-amide] | 800
13 | CC(C)C[C@H](NC(=O)[C@H](Cc1ccccc1)NC(=O)[C@@H](N)CO)C(=O)N[C@H](CC(C)C)C(=O)N[C@@H](CCCNC(=N)N)C(N)=O [(S)-2-[(S)-2-((S)-2-Amino-3-hydroxy-propionylamino)-3-phenyl-propionylamino]-4-methyl-pentanoic acid [(R)-1-((S)-1-carbamoyl-4-guanidino-butylcarbamoyl)-3-methyl-butyl]-amide] | 500
14 | CC(C)C[C@H](NC(=O)[C@H](Cc1ccccc1)NC(=O)[C@@H](N)CO)C(=O)N[C@@H](CC(C)C)C(=O)N[C@H](CCCNC(=N)N)C(N)=O [(S)-2-[(S)-2-((S)-2-Amino-3-hydroxy-propionylamino)-3-phenyl-propionylamino]-4-methyl-pentanoic acid [(S)-1-((R)-1-carbamoyl-4-guanidino-butylcarbamoyl)-3-methyl-butyl]-amide] | 109
15 | CC(C)C[C@H](NC(=O)[C@H](CC(C)C)NC(=O)[C@H](Cc1ccccc1)NC(=O)[C@@H](N)CO)C(=O)N[C@@H](CCCNC(=N)N)C(N)=O [(S)-2-[(S)-2-((S)-2-Amino-3-hydroxy-propionylamino)-3-phenyl-propionylamino]-4-methyl-pentanoic acid [(S)-1-((S)-1-carbamoyl-4-guanidino-butylcarbamoyl)-3-methyl-butyl]-amide] | 1
16 | CC(C)C[C@H](NC(=O)[C@H](Cc1ccccc1)NC(=O)[C@@H](N)CO)C(=O)N[C@@H](C)C(=O)N[C@@H](CCCNC(=N)N)C(N)=O [(S)-2-[(S)-2-((S)-2-Amino-3-hydroxy-propionylamino)-3-phenyl-propionylamino]-4-methyl-pentanoic acid [(S)-1-((S)-1-carbamoyl-4-guanidino-butylcarbamoyl)-ethyl]-amide] (H-SFLAR-NH2) | 15
17 | CC(C)C[C@H](NC(=O)[C@H](CC(C)C)NC(=O)[C@H](Cc1ccccc1)NC(=O)[C@@H](N)CO)C(=O)N[C@@H](C)C(N)=O [(S)-2-[(S)-2-((S)-2-Amino-3-hydroxy-propionylamino)-3-phenyl-propionylamino]-4-methyl-pentanoic acid [(S)-1-((S)-1-carbamoyl-ethylcarbamoyl)-3-methyl-butyl]-amide] (H-SFLLA-NH2) | 70
18 | CC(C)C[C@H](NC(=O)[C@H](C)NC(=O)[C@@H](N)CO)C(=O)N[C@@H](CC(C)C)C(=O)N[C@@H](CCCNC(=N)N)C(N)=O [(S)-2-[(S)-2-((S)-2-Amino-3-hydroxy-propionylamino)-propionylamino]-4-methyl-pentanoic acid [(S)-1-((S)-1-carbamoyl-4-guanidino-butylcarbamoyl)-3-methyl-butyl]-amide] (H-SALLR-NH2) | > 800
19 | CC(C)C[C@H](NC(=O)[C@H](CC(C)C)NC(=O)[C@@H](NC(=O)[C@H](C)N)c1ccccc1)C(=O)N[C@@H](CCCNC(=N)N)C(N)=O [(S)-2-[(S)-2-((S)-2-Amino-propionylamino)-2-phenyl-acetylamino]-4-methyl-pentanoic acid [(S)-1-((S)-1-carbamoyl-4-guanidino-butylcarbamoyl)-3-methyl-butyl]-amide] (H-A[Phg]LLR-NH2) | > 800
20 | CC(C)C[C@H](NC(=O)[C@H](CC(C)C)NC(=O)[C@H](Cc1ccc(Cl)c(Cl)c1)NC(=O)[C@H](C)N)C(=O)N[C@@H](CCCNC(=N)N)C(N)=O [(S)-2-[(S)-2-((S)-2-Amino-propionylamino)-3-(3,4-dichloro-phenyl)-propionylamino]-4-methyl-pentanoic acid [(S)-1-((S)-1-carbamoyl-4-guanidino-butylcarbamoyl)-3-methyl-butyl]-amide] (H-A[Phe(3,4-Cl2)]LLR-NH2) | 0.5
21 | CC(C)C[C@H](NC(=O)[C@H](CC(C)C)NC(=O)[C@H](Cc1ccc(Cl)cc1)NC(=O)[C@H](C)N)C(=O)N[C@@H](CCCNC(=N)N)C(N)=O [(S)-2-[(S)-2-((S)-2-Amino-propionylamino)-3-(4-chloro-phenyl)-propionylamino]-4-methyl-pentanoic acid [(S)-1-((S)-1-carbamoyl-4-guanidino-butylcarbamoyl)-3-methyl-butyl]-amide] (H-A[Phe(4-Cl)]LLR-NH2) | 0.7
22 | CC(C)C[C@H](NC(=O)[C@H](Cc1ccc(F)cc1)NC(=O)[C@H](C)N)C(=O)N[C@@H](CC1CCCCC1)C(=O)N[C@@H](CCCNC(=N)N)C(N)=O [(S)-2-[(S)-2-((S)-2-Amino-propionylamino)-3-(4-fluoro-phenyl)-propionylamino]-4-methyl-pentanoic acid [(S)-1-((S)-1-carbamoyl-4-guanidino-butylcarbamoyl)-2-cyclohexyl-ethyl]-amide] (H-A[Phe(4-F)]L[Cha]R-NH2) | 0.14
23 | CC(C)C[C@H](NC(=O)[C@H](CC(C)C)NC(=O)[C@H](Cc1ccc(F)cc1)NC(=O)[C@H](C)N)C(=O)N[C@@H](CCCNC(=N)N)C(N)=O [(S)-2-[(S)-2-((S)-2-Amino-propionylamino)-3-(4-fluoro-phenyl)-propionylamino]-4-methyl-pentanoic acid [(S)-1-((S)-1-carbamoyl-4-guanidino-butylcarbamoyl)-3-methyl-butyl]-amide] (H-A[Phe(4-F)]LLR-NH2) | 0.2
